Experimental findings from paper PMC11134387, “Cancer-Stem-Cell Phenotype-Guided Discovery of a Microbiota-Inspired Synthetic Compound Targeting NPM1 for Leukemia” (JACS Au, 2024) are described below.

Entries after “also recorded” stand apart in the source; their conditions may differ.

For data set [1], the system named is primary CD34+ cells from healthy donors. Description: CFU-E colony-forming unit assay, healthy donors. The note with it: Homo sapiens. The format is cell-based. Here is the method: Considering the inhibitory capacity of UCM-13369 on AML cell lines (shown in Figure 3A), the therapeutic potential was assessed in primary CD34+ cells from AML patients. Two ex vivo models were used from AML patients and healthy donors: CD34+ liquid HSC (hematopoietic stem cell) culture as a short-term model and CFU-E (colony-forming unit–erythroid) as a midterm model.
The test compound was diluted in PBS. […]
Primary cells. 1x10^6/mL total mononuclear bone marrow cells (as source of CD34+ HSCs) of healthy donors and AML patients were used. They were cultured using Stem SpanTM supplement with pencillin/streptomycin (500 U/ml), TPO (10 µg/mL), SCF (10 µg/mL), FLT3 (10 µg/mL), IL-6 (10 µg/mL) and IL-3 (10 µg/mL). After 24 h fresh medium was added. After 72 h in maintenance cells were ready to start the assays. All cells wer e maintained at 37 °C in a humidified incubator in an atmosphere of 5% CO2.
Colonospheres, mamospheres and colony formation unit assays. 30.000 cells per well of MCF-7 cells (mamos pheres), HCT-116 cells (colonospheres) and CD34+ cells from patients (colony formation units) were seeded in serum free non- adherent medium or […]
MethoCult (Stem Cell). […]

Another data set deals with OCI-AML3-ffLuc-GFP cells. In words: AML xenograft mouse model (OCI-AML3-ffLuc-GFP in NSG mice). The format is in vivo. As to the method:
(§1) Based on the encouraging results obtained in ex vivo models of AML, we further assessed the therapeutic potential of the new NPM1 inhibitor in vivo. Prior to the evaluation of the compound in an animal model of AML, in vivo pharmacokinetic studies were addressed. Following a single intraperitoneal administration of UCM-13369 at a dose of 25 mg/kg, levels of 200–600 μg/L were detected in mouse peripheral blood up to 6 h (Figure 6A). Plasma protein binding of the compound in mouse serum was measured using an equilibrium dialysis assay, indicating a bound fraction of 83 ± 1%. Next, the efficacy of the compound was evaluated in immunodeficient mice after injection of OCI-AML3-ffLuc-GFP cells as an AML animal model.
An AML xenograft mouse model was used for the in vivo study of efficacy. Female 6- to 8-week-old NOD.Cg-Prkdcscid Il2rgtm1Wjl/SzJ (NSG) mice (Vivotecnia, Madrid, Spain) were inoculated intravenously by tail vein injection with OCI-AML3-ffLuc-GFP cells (1 × 10^6). Four days later, the mice were randomized into two groups of 10 animals: the first group received intraperitoneal injections of vehicle (0.9% saline solution) 5 days a week; the second group received intraperitoneal injections of 25 mg/kg or 50 mg/kg UCM-13369 five times weekly for 3 weeks. The mice were monitored for tumor burden, distribution, and engraftment every week by IVIS whole-body bioluminescence imaging. Bioimaging of MM burden in vivo was performed by IVIS Imaging system (Caliper Life Science). A solution of luciferin (D-luciferin monosodium salt, Thermo Fisher) in PBS was injected (150 mg/kg, ip), and luminescence signal was determined after 10 min. The data were analyzed using the Living Image 4.2 (Caliper Life Science) software.

A short description of data set [2]: Plasma protein binding, equilibrium dialysis (RED). The conditions noted are these: pH 7.4, mouse serum, read-out: Plasma protein binding, bound fraction (converted). In kind it is in vitro ADME. As to the method: as §1, with “model. […]” for “model.”
coupled to a liquid nanochromatography Easy nLC 1200 System (Thermo Scientific).
Once digested, mutant NPM1 C+ C-end sample w as injected into a EASY-Spray™ C18 column, and digestion peptides were separated by using a lineal phase gradi ent (A: 0.1% formic acid in water; B: 20% acetonitrile, 0.1% formic acid in water) for 120 min. Spectra were acquired in DDA m ode, analyzing the 10 higher intensity parent ions in each cycl e.
Proteome Discoverer (Thermo Scientific) was used to align the spectra with the C-end […]
Random exclusion of AIRs was set to 2%. […] Clusters were classifi ed according to H ADDOCK score and stru ctures w er e analyzed with UCSF ChimeraX).10 […]
Background: In equilibrium dialysis only unbound substance equilibrates across the membrane.

Broadly, the IC50 is the midpoint of a concentration-inhibition curve. The molecule `COc1ccc(C2Cc3[nH]c4ccccc4c3C(CCNCC3CC3)C2N)cc1` (stereo not drawn) [4b, 4-{2-[(Cyclopropylmethyl)amino]ethyl}-2-(4-methoxyphenyl)-2,3,4,9-tetrahydro-1H-carbazol-3-amine] yielded an IC50 in data set [1] of 1.73 µM. In the data set on OCI-AML3-ffLuc-GFP cells (25 mg/kg, data not shown), the “Reduction in tumor mass (in words)” value is given as “negligible”. Besides, the “Tumor cell infiltration of bone marrow, H&E staining (in words)” value in the data set with OCI-AML3-ffLuc-GFP cells (50 mg/kg) was “less tumor cell infiltration”. The “Survival, treated vs untreated animals (in words)” value in the data set with OCI-AML3-ffLuc-GFP cells (50 mg/kg, Kaplan-Meier, listed as UCM-13369) is reported as “no significant differences; also recorded: no difference”. Moreover, the “Tumor infiltration vs untreated group at end point (in words)” value in the data set on OCI-AML3-ffLuc-GFP cells (50 mg/kg, bioluminescence) was “reduction of tumor infiltration”. In data set [2], the fraction unbound at 6 h is 0.17.
